This note sets out measurements from patent publication US11583525B2, “Geranylgeranyltransferase I inhibitor for treatment of a PTEN defective cancer” (H. LEE MOFFITT CANCER CENTER AND RESEARCH INSTITUTE, INC., priority 2017, dated 2023).

Experiment [1] concerns Ca2+ mobilization. Nature of the experiment: Cytosolic Ca2+ mobilization measured with aequorin in NHFs in response to ATP. The format is cell-based, human. The settings on record: NHFs re-stimulated with serum for one hour; ATP stimulation. The protocol:
FIGS. 7A, 7B, 7C, 7D, 7E, 7F, 7G, 7H, and 7I show FBXL2 controls Ca2+ mobilization and Ca2+-mediated apoptosis. […] Quantification of three independent experiments is shown and represented as percentage increase compared to EXP cells, which were set as 100%. P values were calculated by one-way ANOVA and multiple-comparisons test. Error bars indicate s.e.m. […] Quantifications and P value analyses was performed as in a. […] On the left, representative traces. On the right, quantification of three independent experiments. P values were calculated by a one-way ANOVA and multiple-comparisons test. Error bars indicate s.e.m. […] Concentrations of cytosolic (7d) and mitochondrial (7e) Ca2+ were measured with the appropriate aequorin in response to agonist stimulation (ATP). […] On the right, quantifications of three independent experiments. P values were calculated by one-way ANOVA and multiple-comparisons test. […] P values were calculated by unpaired t-test. […] Induction of cell death was evaluated after treatment with H2O2 using automated nuclei count analysis of twenty randomly chosen fields. P values were calculated by one-way ANOVA and multiple-comparisons test. […] Left, representative traces showing concentrations of mitochondrial Ca2+ measured with mitochondrial targeted aequorin. Right, quantification of three independent experiments. P values were calculated by one-way ANOVA and multiple-comparisons test. […]
In general terms: Calcium flux is commonly read through the fluorescence of an indicator in the cells.

Experiment [2] has as its system IP3R3. Put plainly: IP3R3 levels and FBXL2 binding in HEK293T cells transfected with Flag-tagged FBXL2 constructs. Type of experiment: cell-based, human. The protocol:
24 h post-transfection, cells were treated with MG132 for 3 h before harvesting for immunoprecipitation and immunoblotting as indicated. WCL, whole-cell lysate from untransfected cells. […] After harvesting, cells were lysed, and cell membranes (CM) were isolated and immunoprecipitated with either a normal mouse IgG or an anti-Flag antibody. Subsequently, immunoprecipitates were analysed by immunoblotting as indicated. The results of these experiments (n=2) indicate that FBXL2 is incorporated into a complete SCF ligase that binds its substrate(s) at cellular membranes. […] After harvesting, cells were lysed and cytoplasmic (CYTO) and cell membrane (CM) fractions were isolated and analysed by immunoblotting as indicated. Actin and calnexin are used as markers for cytoplasmic and cell membrane fractions, respectively. This experiment was performed twice. […] 24 h post-transfection, where indicated, cells were treated with MG132 for 3 h before harvesting for immunoprecipitation and immunoblotting. Ned. CUL1, neddylated CUL1. […] The experiment was performed in the presence or absence of MG132 as indicated. Whole-cell lysates were immunoblotted as indicated. The asterisk indicates a non-specific band. This experiment was performed twice. […] P values were calculated by unpaired t-test. Error bars indicate s.e.m. […] Error bars indicate s.e.m. The values represent the ratios between FBXL2 and GAPDH mRNAs. […]

Peptide text beside a SMILES is read from it. * marks the point of attachment. Cbz = O=C(OCc1ccccc1)*

Regarding `Cc1nc[nH]c1CN1CCN(C(=O)N[C@@H](CC(C)C)C(=O)O)[C@@H](Cc2ccccc2)C1=O` [GGTi-2418], the “serum-mediated decrease in Ca2+ mobilization” value in experiment [1] is recorded as “inhibited the serum-mediated decrease in Ca2+ mobilization”.

Regarding `CC(C)C[C@@H](C=O)NC(=O)[C@H](CC(C)C)NC(=O)[C@H](CC(C)C)NC(=O)OCc1ccccc1` [MG132] (Cbz-Leu-Leu-Leu-aldehyde), in experiment [1], the “serum-mediated decrease in Ca2+ mobilization” value was “inhibited the serum-mediated decrease in Ca2+ mobilization”. In addition, the “FBXL2-induced decrease in the levels of IP3R3” value in experiment [2] (HEK293T cells expressing wild-type FBXL2, MG132) is reported as “this decrease was rescued by MG132 treatment”. For the same compound, the “difference in IP3R3 binding between FBXL2(ΔF-box) and wild-type FBXL2” value in experiment [2] (HEK293T cells, MG132 for 3 h) is recorded as “this difference was abolished by MG132 treatment”.
